The nature of data set [1]: Flux of oestradiol, progesterone, norethisterone acetate, ibuprofen, flurbiprofen across shed snake skin, 5 microL/cm^2 (Example 11). The data set is classed as in vitro ADME. The following applies: Children's python.
The conditions of data set [2]: hairless, mouse, 2 % v/v.
Description: Hairless mice of 4-8 weeks of age were used. The mouse skin was excised and full-thickness skin was isolated from the torso, the subcutaneous fat and connective tissue removed and the skin cut into circles of 2·0 cm^2, then placed into the diffusion cells for flux measurements.
The cell consists of an upper section (1) and a lower section (2). A stainless steel wire mesh support (4) is housed in a recess (5) in the lower section of the cell. The skin sample (3), cut into a circle, is gently placed over the support (4) and the two sections (1,2) of the cells are secured together by screws (not shown), using the locating holes (9), to form a tight seal. An aperture (8) in the upper section of the cell, which has an area of 0.79 cm^2 (0.5 cm in diameter) forms a well above the skin into which the topical formulation is applied. In most cases 400 microL of formulation, solution or suspension containing the drug substance to be tested was applied evenly over the skin. […] The amount of drug in each vial containing receptor solution was determined by reverse phase HPLC.
(§3) The concentration of applied drug in each diffusion cell sample was measured using high pressure liquid chromatography (HPLC). […] Absorbance was measured at the appropriate wavelength using a Waters tuneable absorbance detector and peak area was plotted and integrated using a Shimadzu C-R3A chromatopac integrator. […]
Data set [3] deals with full-thickness guinea pig skin in vivo. Kind of data set: Melanin content of guinea pig skin in vivo after topical hydroquinone solution (Example 4). The procedure:
Melanin content was measured by reflectance absorbance from the treated and untreated skin according to the methods outlined in the PhD thesis of Anderson, J. R., titled The Development of Techniques for Measuring the Bioavailability of Topical Depigmenting Agents (School of Pharmaceutics, Victorian College of Pharmacy Ltd., Parkville, Victoria, Australia, Dec., 1985).

For data set [4] the following is noted: Children's python, 24 h, 2 % v/v.
Description: The Children's python shed snake skin was obtained during natural shedding and the dorsal skin was used.
A modified stainless steel flow-through diffusion cell assembly based on that first shown by Cooper in J.Pharm.Sci. 73(8), 1984, was used to perform the experiments on diffusion of the drugs from various donor compositions through the skin (either snake or hairless mouse). The cell consists of an upper section (1) and a lower section (2). A stainless steel wire mesh support (4) is housed in a recess (5) in the lower section of the cell. The skin sample (3), cut into a circle, is gently placed over the support (4) and the two sections (1,2) of the cells are secured together by screws (not shown), using the locating holes (9), to form a tight seal. […] The amount of drug in each vial containing receptor solution was determined by reverse phase HPLC. Prior to analysis each vial was weighed with an analytical balance (Mettler AT261, Australia) and the volume calculated from the density of the receptor solution which was 1·0554 g/cm^3 at 22° C.
as §3
The nature of data set [5]: Flux of oestradiol, progesterone, norethisterone acetate, ibuprofen, flurbiprofen across shed snake skin, 5 microL/cm^2 (Example 11). The data set is classed as in vitro ADME, Children's python. The text has this: (§1) Dermatol., 94; 235-240, 1990.
(§2) Degassing was repeated three times.
In order to further illustrate the present invention and the advantages thereof, the following specific examples are given, it being understood that same are intended only as illustrative and in nowise limitative. In the examples, the effectiveness of the dermal penetration enhancers are illustrated by measuring the skin penetration of physiologically active agents. Also, the skin penetration of the dermal penetration enhancers of this invention were compared with that of other penetration enhancers as well as formulations of bio-affecting agents with common adjuvants. The comparisons made generally consisted of measuring the relative penetration through shed snake skin of the various formulations. In the examples, the in vitro skin penetration studies were performed using the same in vitro diffusion cell apparatus as previously mentioned.
The two penetration enhancers given as examples are octyl dimethyl PABA and Azone. Both penetration enhancers were again at a concentration of 8% v/v within the formulations and control was without a penetration enhancer. A concentration of 2% w/v oestradiol was used in the formulation and detection wavelength was 212 nm and the mobile phase consisted of acetonitrile:water (40%:60%).

Data set [6] can be described thus: Hydroquinone penetration across full-thickness guinea pig skin in vitro from gel, Franz cells (Example 4). The text has this:
Adult guinea pigs of either sex (weight range 500 g-750 g) were used. The hair on the back flank and back was removed with the aid of depilatory wax (Arielle™) under halothane anaesthesia. Seven days later, after the stratum corneum had completely regenerated, the guinea pigs were killed and the skin removed and placed on a chilled slab. […] For in vivo experiments the guinea pigs were housed in individual cages and the topical hydroquinone formulations were applied to the hair-free areas. Each guinea pig received the test or control formulation on the corresponding contralateral site, thus allowing each animal to act as its own control.
Radiolabelled hydroquinone (C14, Amersham) was added to each of the topical formulations. At specified time intervals 200 microL of receptor solution was withdrawn with a micro-pipette and replaced with 200 microL of fresh normal saline. The 200 microL samples were added to 800 microL of water which in turn was added to 10 mL of scintillation cocktail consisting of Toluene™ 1L, PPO 5g, POPOP 0.1 g and Triton X™ 500 mL. The scintillation counting was performed on a Packard Tricarb 460C instrument. Disintegrations per minute were determined by an external standard procedure and calculated by the data system of the instrument.

Data set [7] is classed as in vitro ADME, Children's python. As to conditions: control, no enhancer; 1% w/v hydrocortisone in 70% aqueous ethanol.
Description: as §1, §2
The control formulation contained no penetration enhancer. The detection wavelength was 242 nm and the mobile phase consisted of acetonitrile:water (35%:65%).

Like-named read-outs stand apart in the source and are kept apart here. Marks after values point to notes of the source that are not given here.

For the molecule `CCCCCCCCCCCCN1CCCCCC1=O` [Azone, 1-dodecal-azacycloheptane-2-one], in data set [1] (8 % v/v), the “Mean flux +/− std error of flurbiprofen” value is on record as 2.05 +/− 0.42 microg/cm^2 · h, the “Mean flux +/− std error of ibuprofen” value was 13.53 +/− 1.38 microg/cm^2 · h and the “Mean flux +/− std error of norethisterone acetate” value is 0.16 +/− 0.02 microg/cm^2 · h. Further, in data set [1] (24 h, 8 % v/v), the “Mean flux +/− std error of progesterone” value was 2.17 +/− 0.33 microg/cm^2 · h. Moreover, the “median amount of ibuprofen penetrated after 12 hours” value in data set [2] (12 h) is on record as 1036* μg/cm^2. In addition, the “median amount of ibuprofen penetrated after 24 hours” value in data set [2] (24 h) is 2684* μg/cm^2. Moreover, the Melanin content in data set [3] (HQ 2% w/v with enhancer 2% v/v, finite dose solution 5 microL/cm^2) stood at 39.5 ± 9.6 μg/cm^2. In addition, in data set [3] (melanin content, HQ 2% w/v with enhancer 2% v/v versus HQ 2% w/v control), the “Enhancement ratio (enhancer/control)” value stood at 0.93. The Enhancement ratio in data set [4] came to 3.6. The “Mean flux +/− std error of oestradiol” value in data set [5] (Children's python, 8 % v/v) is listed as 0.40 +/− 0.05 microg/cm^2 · h. Moreover, the Enhancement ratio in data set [5] (Children's python, 24 h, 8 % v/v) was found to be 5.4.

On to `CC(C(=O)O)c1ccc(-c2ccccc2)c(F)c1` (stereo not drawn) [Flurbiprofen, flurbiprofen], for which the “Mean flux +/− std error of flurbiprofen” value in data set [1] (20 %) is on record as 0.81 +/− 0.05 microg/cm^2 · h.

Turning to `Oc1ccc(O)cc1` [HQ, hydroquinone], the Melanin content in data set [3] (HQ 1% w/v control, no enhancer, 5 microL/cm^2) came out at 57.5 ± 3.7 μg/cm^2; in data set [3] (HQ 2% w/v control, no enhancer, 5 microL/cm^2), 36.8 ± 8.1 μg/cm^2. Also, in data set [6] (control gel, no enhancer, 15 mg/cm^2), the Flux of hydroquinone turned out to be 0.35 ± 0.10 % dose/h.

For `C#C[C@]1(OC(C)=O)CC[C@H]2[C@@H]3CCC4=CC(=O)CC[C@@H]4[C@H]3CC[C@@]21C` [Norethisterone acetate, norethisterone acetate], in data set [1] (24 h, 6 % w/v), the “Mean flux +/− std error of norethisterone acetate” value is 0.14 +/− 0.02 microg/cm^2 · h.

For `C[C@]12CC[C@@H]3c4ccc(O)cc4CC[C@H]3[C@@H]1CC[C@@H]2O` [Oestradiol, oestradiol], in data set [5] (control without penetration enhancer, 2% w/v oestradiol), the “Mean flux +/− std error of oestradiol” value was 0.06 +/− 0.01 microg/cm^2 · h.

On to `CCCCC(CC)COC(=O)C=Cc1ccc(OC)cc1` (stereo not drawn) [PARSOL ® MCX], for which the Flux of hydroquinone in data set [6] (HQ gel 15 mg/cm^2 with enhancer (PARSOL MCX 3% v/v, ESCALOL 507 3% v/v, AZONE 5% v/v as in row)) turned out to be 0.93 ± 0.19 % dose/h. In data set [6] (hydroquinone flux from gel, guinea pig skin in vitro), the “Enhancement ratio (enhancer/control)” value was 2.7.

Turning to `CC(=O)[C@H]1CC[C@H]2[C@@H]3CCC4=CC(=O)CC[C@]4(C)[C@H]3CC[C@]12C` [Progesterone, progesterone], in data set [1] (24 h, 6 % w/v), the “Mean flux +/− std error of progesterone” value was 0.40 +/− 0.02 microg/cm^2 · h.

As to `C[C@]12CCC(=O)C=C1CC[C@@H]1[C@@H]2[C@@H](O)C[C@@]2(C)[C@H]1CC[C@]2(O)C(=O)CO` [hydrocortisone], the “Mean flux +/− std error of hydrocortisone” value in data set [7] is 0.14 +/− 0.04 microg/cm^2.h.

(Values after patent US6818226B2, “Dermal penetration enhancers and drug delivery systems involving same” (ACRUX DDS Pty. Ltd., priority 1996, dated 2004).)
